Data published in patent US8815535B2, “Disk diffusion assay for oritavancin” (The Medicines Company, priority 2011, dated 2014).
Read-outs that look alike come from different tables or passages of the source.

Tested on: MSSA ATCC 25923
Test: Disk diffusion assay (zone of inhibition)
Format: cell-based, Staphylococcus aureus
Conditions: for Effect of addition of 5% P80 on zone diameter (average increase): MSSA ATCC 25923, disks containing 30 μg; for zone of inhibition at 30 µg/disc: Staphylococcus aureus, 30 μg in disk, without prediffusion, average of 2 disks
Source text: The study was designed to identify conditions that improve oritavancin diffusion in agar and consequently yield a zone diameter ≧15 mm for the CLSI quality control strain MSSA ATCC 25923. Excipients that increased the disk diffusion of oritavancin in agar relative to disks containing only oritavancin were identified and selected for further study. […] A prediffusion step at room temperature was introduced to maximize oritavancin diffusion prior to initiation of bacterial growth. In this step, the antimicrobial disks were placed on agar plates seeded with a bacterial isolate and incubated at room temperature for 3 hours. Plates were then incubated overnight at 37° C. Zone diameters around the disks in which bacterial growth was inhibited were measured with a ruler and reported in millimeters.
Ethanol-sterilized Whatman paper disks (6 mm diameter) were allowed to dry then impregnated with 20 microliters of oritavancin solution containing total amounts ranging from 90 to 360 micrograms. Disks were allowed to dry at room temperature for various times prior to use.
Bacterial suspensions were prepared and adjusted to an optical density of 0.1 at 600 nm. […] The plate was swabbed a second time, perpendicular to the orientation of the first swab. To assess the impact of prediffusion on diameter of inhibition zones, two disks were immediately placed on one half of the plate and the plate was incubated for 3 hours at room temperature. After 3 hours, two additional disks were placed on the other half of the plate then the plate was incubated overnight at 37° C. Zone diameters were measured with a ruler and reported in millimeters. […]
Oritavancin powder was dissolved in freshly-prepared solutions of the indicated excipients at concentrations of 0.625, 1.25, 2.5, 5, and 10 mg/ml (adjusted for potency based on lot 875561L00 purity of 83.1%) by vortexing for a minimum of 5 minutes. Oritavancin solutions in the various excipients, while not visually clear, were free from any apparent particulates as assessed visually. Sterile Oxoid blank disks were impregnated with 20 μl of these oritavancin solutions, resulting in oritavancin disk loads ranging from 12.5 to 200 μg. Unless indicated otherwise, disks were allowed to dry overnight at room temperature prior to use.
[…] Swabbing was continued at a right angle and then at an oblique angle to the first and second swabs. Disks were placed upon the seeded plates with sterile forceps. Plates were then incubated overnight at 37° C. and inhibition zone diameters were measured with a ruler and reported in millimeters.

[1] = read-out: Average zone diameter, S. aureus ATCC 25923, +5% P80
[2] = read-out: Average zone diameter, S. aureus ATCC 25923, Control (without P80)

SMILES	Effect of addition of 5% P80 on zone diameter (average increase)	zone of inhibition at 30 µg/disc [1] [mm]	zone of inhibition at 30 µg/disc [2] [mm]	zone of inhibition at 30 µg/disc (S. aureus ATCC 25923, +5% P80, read-out: Average zone diameter) [mm]	zone of inhibition at 30 µg/disc (S. aureus ATCC 25923, Control (without P80), read-out: Average zone diameter) [mm]
CN[C@H](CC(C)C)C(=O)N[C@H]1C(=O)N[C@@H](CC(N)=O)C(=O)N[C@H]2C(=O)N[C@H]3C(=O)N[C@H](C(=O)N[C@H](C(=O)O)c4cc(O)cc(O)c4-c4cc3ccc4O)[C@H](O)c3ccc(c(Cl)c3)Oc3cc2cc(c3O[C@@H]2O[C@H](CO)[C@@H](O)[C@H](O)[C@H]2O[C@H]2C[C@](C)(N)[C@H](O)[C@H](C)O2)Oc2ccc(cc2Cl)[C@H]1O [Vancomycin]	no effect	17.5	17.5		
CCCCCCCCCC(=O)N[C@@H](Cc1c[nH]c2ccccc12)C(=O)N[C@H](CC(N)=O)C(=O)N[C@@H](CC(=O)O)C(=O)N[C@@H]1C(=O)NCC(=O)N[C@@H](CCCN)C(=O)N[C@@H](CC(=O)O)C(=O)N[C@H](C)C(=O)N[C@@H](CC(=O)O)C(=O)NCC(=O)N[C@H](CO)C(=O)N[C@@H]([C@H](C)CC(=O)O)C(=O)N[C@@H](CC(=O)c2ccccc2N)C(=O)O[C@@H]1C [Daptomycin]	no effect			18	18.5
CCCCCCCCCCNCCN[C@@]1(C)C[C@H](O[C@H]2[C@H](Oc3c4cc5cc3Oc3ccc(cc3Cl)[C@@H](O)[C@@H](NC(=O)[C@@H](CC(C)C)NC)C(=O)N[C@@H](CC(N)=O)C(=O)N[C@H]5C(=O)N[C@H]3C(=O)N[C@H](C(=O)N[C@H](C(=O)O)c5cc(O)c(CNCP(=O)(O)O)c(O)c5-c5cc3ccc5O)[C@H](O)c3ccc(c(Cl)c3)O4)O[C@H](CO)[C@@H](O)[C@@H]2O)O[C@@H](C)[C@H]1O [Telavancin]		18	16.5		
